# Source: patent US6620828B2, “Thiazole compounds and pharmaceutical compositions for inhibiting protein kinases and methods for their use” (Agouron Pharmaceuticals, Inc., priority 1999, dated 2003)
# Columns and labels:
# [1] = target: T1, unphosphorylated VEGF-R2Δ50 (FLVK) (Homo sapiens, UniProt P35968, DEL940-989/E990V); assay: VEGF-R2 coupled spectrophotometric assay, unphosphorylated enzyme (FLVK); assay type: biochemical; details: for inhibition at 0.05 µM: at 50 nM
# T1 construct: VEGF-R2Δ50 contains residues 806-939 and 990-1171; made in house; host or cells: baculovirus/insect cells
# T1 sequence (P35968 with tags, fused parts or gaps DEL940-989/E990V limits assumed): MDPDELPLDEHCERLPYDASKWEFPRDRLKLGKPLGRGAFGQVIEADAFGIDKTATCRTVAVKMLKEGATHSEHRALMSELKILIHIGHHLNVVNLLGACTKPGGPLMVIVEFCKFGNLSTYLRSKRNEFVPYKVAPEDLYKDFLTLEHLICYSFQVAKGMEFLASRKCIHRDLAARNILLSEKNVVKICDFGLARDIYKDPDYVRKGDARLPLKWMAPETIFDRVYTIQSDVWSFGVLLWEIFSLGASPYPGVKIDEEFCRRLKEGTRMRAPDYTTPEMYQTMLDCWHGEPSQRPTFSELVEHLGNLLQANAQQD
# Text: VEGF-R2 Construct for Assay: This construct determines the ability of a test compound to inhibit tyrosine kinase activity. A construct (VEGF-R2Δ50) of the cytosolic domain of human vascular endothelial growth factor receptor 2 (VEGF-R2) lacking the 50 central residues of the 68 residues of the kinase insert domain was expressed in a baculovirus/insect cell system. Of the 1356 residues of full-length VEGF-R2, VEGF-R2Δ50 contains residues 806-939 and 990-1171, and also one point mutation (E990V) within the kinase insert domain relative to wild-type VEGF-R2. Autophosphorylation of the purified construct was performed by incubation of the enzyme at a concentration of 4 μM in the presence of 3 mM ATP and 40 mM MgCl2 in 100 mM Hepes, pH 7.5, containing 5% glycerol and 5 mM DTT, at 4° C. for 2 h. […] See Parast et al., Biochemistry, 37, 16788-16801 (1998).
# The production of ADP from ATP that accompanies phosphoryl transfer was coupled to oxidation of NADH using phosphoenolpyruvate (PEP) and a system having pyruvate kinase (PK) and lactic dehydrogenase (LDH). The oxidation of NADH was monitored by following the decrease of absorbance at 340 nm (e340=6.22 cm^−1 mM^−1) using a Beckman DU 650 spectrophotometer. Assay conditions for phosphorylated VEGF-R2Δ50 (indicated as FLVK-P in the tables below) were the following: 1 mM PEP; 250 μM NADH; 50 units of LDH/mL; 20 units of PK/mL; 5 mM DTT; 5.1 mM poly(E4Y1); 1 mM ATP; and 25 mM MgCl2 in 200 mM Hepes, pH 7.5. Assay conditions for unphosphorylated VEGF-R2Δ50 (indicated as FLVK in the tables) were the following: 1 mM PEP; 250 μM NADH; 50 units of LDH/mL; 20 units of PK/mL; 5 mM DTT; 20 mM poly(E4Y1); 3 mM ATP; and 60 mM MgCl2 and 2 mM MnCl2 in 200 mM Hepes, pH 7.5. Assays were initiated with 5 to 40 nM of enzyme. Ki values were determined by measuring enzyme activity in the presence of varying concentrations of test compounds. The data were analyzed using Enzyme Kinetic and Kaleidagraph software.
# [2] = tested on: human umbilical vein endothelial cells (HUVEC); assay: HUVEC proliferation assay; assay type: cell-based; details: Homo sapiens, HUVEC
# Summary of the method: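 Readout was MTT dye reduction (A595) after 72 h of stimulation with VEGF at 6 ng/ml final. Compound, in 0.1% DMSO final, was added 1 h before VEGF to HUVEC starved 24 h in 1% FBS. % inhibition was scaled between VEGF-alone and unstimulated wells; IC50 was fitted from triplicate dose curves.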
# [3] = target: T2, phosphorylated VEGF-R2Δ50 (FLVK-P) (Homo sapiens, UniProt P35968, DEL940-989/E990V); assay: VEGF-R2 coupled spectrophotometric (FLVK-P) assay; assay type: biochemical; details: for Ki: Table 1, spectrophotometric assay
# T2 construct: VEGF-R2Δ50 contains residues 806-939 and 990-1171; made in house; host or cells: baculovirus/insect cells
# T2 sequence (P35968 with tags, fused parts or gaps DEL940-989/E990V limits assumed): as above
# Summary of the method: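 Baculovirus-expressed human VEGF-R2Δ50 (residues 806-939/990-1171, E990V) was autophosphorylated with 3 mM ATP, 40 mM MgCl2 for 2 h at 4° C. ADP formation was coupled via PK/LDH to NADH oxidation, read at 340 nm, with 5.1 mM poly(E4Y1), 1 mM ATP, 25 mM MgCl2, Hepes pH 7.5. Ki came from activity across compound concentrations.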
# [4] = Table 3, some entries 'Slow binder'
"Ki [1, 4]",Structure (SMILES),IC50 ([2]; Table 3),other results
0.45 nM,"COc1cccc(C(=O)Nc2cc(-c3noc(-c4sc(NC(=O)N[C@H]5CC[C@H](O)CC5)nc4N)n3)c(F)cc2F)c1 [O(11), N-[5-(5-{4-Amino-2-[3-(trans-4-hydroxy-cyclohexyl)-ureido]-thiazol-5-yl}-[1,2,4]oxadiazol-3-yl)-2,4-difluoro-phenyl]-3-methoxy-benzamide]",14 nM,–
0.36 nM,"Cc1cccc(C(=O)Nc2cccc(-c3noc(-c4sc(NC(=O)NCc5ccccc5)nc4N)n3)c2)c1 [F(14), N-(3-{5-[4-Amino-2-(3-benzyl-ureido)-thiazol-5-yl]-[1,2,4]oxadiazol-3-yl}-phenyl)-3-methyl-benzamide]",150 nM,–
–,"COc1cccc(C(=O)Nc2ccc(C)c(-c3noc(-c4sc(NC(C)C)nc4N)n3)c2)c1 [B(22), N-{3-[5-(4-Amino-2-isopropylamino-thiazol-5-yl)-[1,2,4]oxadiazol-3-yl]-4-methyl-phenyl}-3-methoxy-benzamide]",> 1000 nM,inhibition at 0.05 µM ([1]; Table 3): 54%
17 nM,"COc1cc(Nc2nc(N)c(-c3nc(-c4cc(N)ccc4Cl)no3)s2)cc(OC)c1OC [C(7), 5-[3-(5-Amino-2-chloro-phenyl)-[1,2,4]oxadiazol-5-yl]-N2-(3,4,5-trimethoxy-phenyl)-thiazole-2,4-diamine]",300 nM,–
8 nM,"COc1cc(Nc2nc(N)c(-c3nc(-c4cc(N)c(F)cc4Cl)no3)s2)cc(OC)c1OC [C(9), 5-[3-(5-Amino-2-chloro-4-fluoro-phenyl)-[1,2,4]oxadiazol-5-yl]-N-(3,4,5-trimethoxy-phenyl)-thiazole-2,4-diamine]",300 nM,–
1.7 nM,"COc1cc(Nc2nc(N)c(-c3nc(-c4cc(NC(=O)OC(C)(C)C)c(Cl)cc4Cl)no3)s2)cc(OC)c1OC [B(15), (5-{5-[4-Amino-2-(3,4,5-trimethoxy-phenylamino)-thiazol-5-yl]-[1,2,4]oxadiazol-3-yl}-2,4-dichloro-phenyl)-carbamic acid tert-butyl ester]",100 nM,–
33 nM,"COc1cc(Nc2nc(N)c(-c3nc(-c4cc(N)ccc4C)no3)s2)cc(OC)c1OC [C(6), 3-(3-amino-6-methyl-phenyl)-5-[2-[(3,4,5 trimethoxyphenyl)-amino]-4-amino-5-thiazolyl]-1,2,4-oxadiazole]",300 nM,–
–,"CNC(=O)Nc1nc(N)c(-c2nc(-c3cccc(NC(=O)c4ccc(Cl)s4)c3)cs2)s1 [F(1), 5-Chloro-thiophene-2-carboxylic acid {3-[4′-amino-2′-(3-methyl-ureido)-[2,5′]bithiazolyl-4-yl]-phenyl}-amide]",–,Ki [3]: 0.91 nM; Ki ([1]; Table 1): 1.4 nM; IC50 ([2]; Table 1): 29 nM
–,COc1cc(Nc2nc(N)c(-c3nc(-c4cccc(-c5nc(C)n[nH]5)c4)no3)s2)cc(OC)c1OC [B(37)],> 1000 nM,inhibition at 0.05 µM ([1]; Table 3): 36%
1.3 nM,"COc1cc(Nc2nc(N)c(-c3nc(-c4cc(NC(=O)OC(C)(C)C)c(F)cc4F)no3)s2)cc(OC)c1OC [B(13), (5-{5-[4-Amino-2-(3,4,5-trimethoxy-phenylamino)-thiazol-5-yl]-[1,2,4]oxadiazol-3-yl}-2,4-difluoro-phenyl)-carbamic acid tert-butyl ester]",300 nM,–
–,"CC(=O)Nc1nc(N)c(-c2nc(-c3cccc(NC(=O)c4ccc(Cl)s4)c3)cs2)s1 [F(2), N-[3-(2′-Acetylamino-4′-amino-[2,5′]bithiazolyl-4-yl)-phenyl]-5-chloro-thiophene-2-carboxamide]",–,Ki [3]: 3.9 nM; Ki ([1]; Table 1): 4.71 nM; IC50 ([2]; Table 1): 86 nM
94 nM,"COc1cccc(C(=O)Nc2cc(-c3noc(-c4sc(NC(=O)NCCO)nc4N)n3)c(F)cc2F)c1 [O(10), N-[5-(5-{4-Amino-2-[3-(2-hydroxy-ethyl)-ureido]-thiazol-5-yl}-[1,2,4]oxadiazol-3-yl)-2,4-difluoro-phenyl]-3-methoxy-benzamide]",6.7 nM,–
2.2 nM,"Cc1cccc(C(=O)Nc2cccc(-c3noc(-c4sc(NC(=O)Nc5ccccc5)nc4N)n3)c2)c1 [F(12), N-(3-{5-[4-Amino-2-(3-phenyl-ureido)-thiazol-5-yl]-[1,2,4]oxadiazol-3-yl}-phenyl)-3-methyl-benzamide]",> 300 nM,–
6.3 nM,COc1cc(Nc2nc(N)c(-c3nc(-c4cccc(-c5nc(CC(C)C)n[nH]5)c4)no3)s2)cc(OC)c1OC [B(39)],> 100 nM,–
2.7 nM,COc1cc(Nc2nc(N)c(-c3nc(-c4cccc(NC(=O)c5ccc(CN6CCOCC6)cc5)c4)no3)s2)cc(OC)c1OC [D(76)],> 1000 nM,–
0.42 nM,"COc1cccc(C(=O)Nc2cc(-c3noc(-c4sc(NC(=O)NCc5cccnc5)nc4N)n3)c(F)cc2F)c1 [O(9), N-(5-{5-[4-Amino-2-(3-pyridin-3-ylmethyl-ureido)-thiazol-5-yl]-[1,2,4]oxadiazol-3-yl}-2,4-difluoro-phenyl)-3-methoxy-benzamide]",4.3 nM,–
–,"Nc1nc(Nc2cccc(-c3nn[nH]n3)c2)sc1-c1nc(-c2cccc(NC(=O)c3cccc(Cl)c3)c2)no1 [D(63), N-[3(5-{4-Amino-2-[3-(2H-tetrazol-5-yl)-phenylamino]-thiazol-5-yl]-[1,2,4]oxadiazol-3-yl)-phenyl]-3-chloro-benzamide]",> 10000 nM,inhibition at 0.05 µM ([1]; Table 3): 51%
–,"COc1cc(Nc2nc(N)c(-c3nc(-c4cccc(-c5nc(C(C)C)n[nH]5)c4)no3)s2)cc(OC)c1OC [B(38), 5-{3-[3-(5-isopropyl-2H-[1,2,4]triazol-3-yl)-phenyl]-[1,2,4]oxadiazol-5-yl}-N2-(3.4,5-trimethoxy-phenyl)-thiazole-2,4-diamine]",> 700 nM,inhibition at 0.05 µM ([1]; Table 3): 13%
0.61 nM,"COc1cc(Nc2nc(N)c(-c3nc(-c4cc(NC(=O)OC(C)(C)C)ccc4C)no3)s2)cc(OC)c1OC [B(6), 3-(2-methyl-5-(tert-butyloxycarboxyamino)-phenyl)-5-[2-[(3,4,5 trimethoxyphenyl)-amino]-4-amino-5-thiazolyl]-1,2,4-oxadiazole]",56 nM,–
–,"C#CCCCC(=O)Nc1cccc(-c2noc(-c3sc(Nc4cc(OC)c(OC)c(OC)c4)nc3N)n2)c1 [D(62), Hex-5-ynoic acid (3-{5-[4-amino-2-(3,4,5-trimethoxy-phenylamino)-thiazol-5-yl]-[1,2,4]oxadiazol-3-yl}-phenyl)-amide]",500 nM,inhibition at 0.05 µM ([1]; Table 3): 20%
0.16 nM,"COc1cccc(C(=O)Nc2cc(-c3noc(-c4sc(NC(=O)NCC(C)C)nc4N)n3)c(F)cc2F)c1 [O(7), N-(5-{5-[4-Amino-2-(3-isobutyl-ureido)-thiazol-5-yl]-[1,2,4]oxadiazol-3-yl}-2,4-difluoro-phenyl)-3-methoxy-benzamide]",5.2 nM,–
–,"COc1cc(Nc2nc(N)c(-c3nc(-c4cc(N)c(F)cc4F)no3)s2)cc(OC)c1OC [C(8), 5-[3-(5-Amino-2,4,-difluoro-phenyl)-[1,2,4]oxadiazol-5-yl]-N2-(3,4,5-trimethoxy-phenyl)-thiazole-2,4-diamine]",> 700 nM,inhibition at 0.05 µM ([1]; Table 3): 21%
1.1 nM,"CC[C@H](CO)NC(=O)Nc1nc(N)c(-c2nc(-c3cc(NC(=O)c4cccc(OC)c4)c(F)cc3F)cs2)s1 [O(21), N-(5-{4′-Amino-2′-[3-((R)-1-hydroxymethyl-propyl)-ureido]-[2,5′]bithiazolyl-4-yl}-2,4-difluoro-phenyl)-3-methoxy-benzamide]",–,"inhibition at 0.05 µM ([3]; Table 3, at 50 nM): 61%"
0.69 nM,COc1cc(Nc2nc(N)c(-c3nc(-c4cccc(NC(=O)c5cccc(C#N)c5)c4)no3)s2)cc(OC)c1OC [D(68)],> 100 nM,–
2.6 nM,COc1cc(Nc2nc(N)c(-c3nc(-c4cccc(NC(=O)c5ccc(CN6CCN(C)CC6)cc5)c4)no3)s2)cc(OC)c1OC [D(77)],–,–
